Laboratory results as given in paper PMC6095594, “Pre-clinical evaluation of quinoxaline-derived chalcones in tuberculosis” (PLoS ONE, 2018).
Values after ≈ are worked out from the molar mass of the structure shown. Values joined by “and” are separate entries in the source; they are usually repeats but may differ in a detail not shown here. Identical values can stand only once. Like-named read-outs stand apart in the source and are kept apart here.

Tests used:
[1] = tested on: M. tuberculosis H37Rv strain; test: microbe, parasite or virus in culture; assay type: cell-based
[2] = tested on: M. tuberculosis pan-susceptible clinical isolate CDCT-28; test: microbe, parasite or virus in culture; assay type: cell-based; conditions: Mycobacterium tuberculosis
[3] = tested on: M. tuberculosis pNIP::control; test: microbe, parasite or virus in culture; assay type: cell-based; conditions: Mycobacterium tuberculosis; pNIP::control (empty vector)
[4] = tested on: M. tuberculosis pNIP::KatG(WT); test: microbe, parasite or virus in culture; assay type: cell-based; conditions: Mycobacterium tuberculosis
[5] = tested on: M. tuberculosis H37Rv; test: Checkerboard assay, two-drug combination with REMA readout; assay type: cell-based, Mycobacterium tuberculosis; conditions: for MIC Combined: checkerboard, three independent experiments
[6] = tested on: mycolic acids synthesis in M. tuberculosis cells; assay type: cell-based; conditions: N9 at 10 and 25 μg/mL, 18 hours
[7] = tested on: S. typhimurium TA100; test: Salmonella/microsome mutagenicity test
Protocol: Salmonella typhimurium strains TA98, TA97a, TA100, TA1535, and TA102 were provided by MOLTOX® (Molecular Toxicology Inc. USA). Mutagenicity was assayed according to the pre-incubation procedure following the recommendation described in Mortelmans and Zieger (2000). […] Briefly, 100 μL of test bacterial cultures (1–2 x 10^9 cells/mL) were incubated at 37 °C with different concentrations of N9 (10–400 μg/plate) in the presence or absence of S9 mix, for 20 min, without shaking. […] Plates were incubated in the dark at 37 °C for 48 h before counting the revertant colonies. Assays were repeated twice and the plating for each concentration was conducted in triplicate. Data were evaluated by one-way analysis of variance (ANOVA), followed by Dunnett's post-test, using GraphPad Prism 5.0 (GraphPad, San Diego, CA, USA).

[8] = tested on: S. typhimurium TA102; test: Salmonella/microsome mutagenicity test
Protocol: (§1) Salmonella typhimurium strains TA98, TA97a, TA100, TA1535, and TA102 were provided by MOLTOX® (Molecular Toxicology Inc. USA). Mutagenicity was assayed according to the pre-incubation procedure following the recommendation described in Mortelmans and Zieger (2000). […] Briefly, 100 μL of test bacterial cultures (1–2 x 10^9 cells/mL) were incubated at 37 °C with different concentrations of N9 (10–400 μg/plate) in the presence or absence of S9 mix, for 20 min, without shaking. […] 2-aminoanthracene (2-AA, 5 μg/plate) was used as positive control for all strains in the presence of metabolic activation (with S9 mix). […] Plates were incubated in the dark at 37 °C for 48 h before counting the revertant colonies. Assays were repeated twice and the plating for each concentration was conducted in triplicate. Data were evaluated by one-way analysis of variance (ANOVA), followed by Dunnett's post-test, using GraphPad Prism 5.0 (GraphPad, San Diego, CA, USA).

[9] = tested on: S. typhimurium TA97a; test: Salmonella/microsome mutagenicity test
Protocol: as §1

[10] = tested on: S. typhimurium TA98; test: Salmonella/microsome mutagenicity test
Protocol: as §1

[11] = target: CYP2C9 (Homo sapiens, UniProt P11712); conditions: human liver microsomes
[12] = target: CYP2C19 (Homo sapiens, UniProt P33261); conditions: human liver microsomes, CYP2C19, N9 0.01–100 μmol L^-1
[13] = tested on: CYP3A4/5; test: in vitro; conditions: human, microsomes, pH 7.4

Chain of CYP2C19 (P33261 whole entry): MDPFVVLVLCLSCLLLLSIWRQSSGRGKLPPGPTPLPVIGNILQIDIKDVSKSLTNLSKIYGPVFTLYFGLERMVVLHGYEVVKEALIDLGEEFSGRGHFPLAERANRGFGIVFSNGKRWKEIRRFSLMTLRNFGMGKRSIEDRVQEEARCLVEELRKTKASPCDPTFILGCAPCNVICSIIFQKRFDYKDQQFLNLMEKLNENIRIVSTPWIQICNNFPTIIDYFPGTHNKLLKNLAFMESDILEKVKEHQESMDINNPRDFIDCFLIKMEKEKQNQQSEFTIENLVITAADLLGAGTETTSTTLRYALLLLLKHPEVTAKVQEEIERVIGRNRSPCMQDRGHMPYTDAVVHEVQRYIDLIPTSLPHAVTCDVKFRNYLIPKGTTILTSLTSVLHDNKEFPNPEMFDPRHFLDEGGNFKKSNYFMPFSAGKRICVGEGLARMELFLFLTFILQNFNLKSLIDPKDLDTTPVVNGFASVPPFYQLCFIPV
Chain of CYP2C9 (P11712 whole entry): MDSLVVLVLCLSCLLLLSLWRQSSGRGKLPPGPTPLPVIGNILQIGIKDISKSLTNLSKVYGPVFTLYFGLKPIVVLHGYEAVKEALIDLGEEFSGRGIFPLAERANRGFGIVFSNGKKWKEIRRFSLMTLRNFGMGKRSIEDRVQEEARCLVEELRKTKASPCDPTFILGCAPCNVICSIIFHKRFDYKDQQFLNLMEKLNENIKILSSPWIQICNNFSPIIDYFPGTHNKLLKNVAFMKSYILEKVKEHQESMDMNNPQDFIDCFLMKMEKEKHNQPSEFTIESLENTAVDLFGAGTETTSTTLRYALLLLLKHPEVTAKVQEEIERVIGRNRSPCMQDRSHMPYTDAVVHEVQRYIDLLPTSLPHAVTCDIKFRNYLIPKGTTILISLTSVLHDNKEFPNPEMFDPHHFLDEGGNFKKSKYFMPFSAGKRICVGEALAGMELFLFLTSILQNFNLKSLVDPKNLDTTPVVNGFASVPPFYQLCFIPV

COc1ccc(OC)c(C(=O)/C=C/c2ccc3nccnc3c2)c1 [N9]
MIC ([1]; H37Rv): 3.13 µg/mL (≈ 9.77 µM)
MIC ([1]; Mycobacterium tuberculosis, H37RV, read-out: MIC): 3.13 to 12.5 µg/mL (≈ 9.77 to 39 µM)
MIC ([1]; Mycobacterium tuberculosis, read-out: MICs, M. tuberculosis H37Rv strain, and clinical isolates (summary)): 1.56 to 3.13 µg/mL (≈ 4.87 to 9.79 µM)
MIC [2]: 1.56 µg/mL (≈ 4.87 µM)
MIC [3]: 3.13 µg/mL (≈ 9.77 µM)
MIC [4]: 3.13 µg/mL (≈ 9.77 µM)
FICI (fractional inhibitory concentration index) ([5]; N9 combined with MFX): below 0.5
MIC Combined ([5]; combination N9 + EMB): 0.78 µg/mL
MIC Combined ([5]; combination N9 + INH): 0.78 µg/mL
MIC Combined ([5]; combination N9 + RIF): 0.78 µg/mL and 1.56 µg/mL
Effect on synthesis of mycolic acids and non-hydroxylated fatty acids [6]: did not inhibit
MI: mutagenic index ([7]; TA100, +S9, 10 μg/plate): 0.94
Number of revertants/plate ([7]; TA100, +S9, 10 μg/plate): 108.7±15.2 Rev/plate
MI: mutagenic index ([7]; TA100, +S9, 50 μg/plate): 1.13
Number of revertants/plate ([7]; TA100, +S9, 50 μg/plate): 130.7±10.7 Rev/plate
MI: mutagenic index ([7]; TA100, +S9, 100 μg/plate): 0.97
Number of revertants/plate ([7]; TA100, +S9, 100 μg/plate): 112.7±15.5 Rev/plate
MI: mutagenic index ([7]; TA100, +S9, 200 μg/plate): 0.95
Number of revertants/plate ([7]; TA100, +S9, 200 μg/plate): 110.0±11.8 Rev/plate
MI: mutagenic index ([7]; TA100, +S9, 400 μg/plate): 0.97
Number of revertants/plate ([7]; TA100, +S9, 400 μg/plate): 112.0±13.9 Rev/plate
MI: mutagenic index ([7]; TA100, -S9, 10 μg/plate): 1.08
Number of revertants/plate ([7]; TA100, -S9, 10 μg/plate): 125.0±10.5 Rev/plate
MI: mutagenic index ([7]; TA100, -S9, 50 μg/plate): 0.88
Number of revertants/plate ([7]; TA100, -S9, 50 μg/plate): 101.0±12.5 Rev/plate
MI: mutagenic index ([7]; TA100, -S9, 100 μg/plate): 0.84
Number of revertants/plate ([7]; TA100, -S9, 100 μg/plate): 97.0±20.1 Rev/plate
MI: mutagenic index ([7]; TA100, -S9, 200 μg/plate): 0.95
Number of revertants/plate ([7]; TA100, -S9, 200 μg/plate): 109.7±7.8 Rev/plate
MI: mutagenic index ([7]; TA100, -S9, 400 μg/plate): 0.84
Number of revertants/plate ([7]; TA100, -S9, 400 μg/plate): 96.7±9.3 Rev/plate
MI: mutagenic index ([8]; TA102, +S9, 10 μg/plate): 1.01
Number of revertants/plate ([8]; TA102, +S9, 10 μg/plate): 376.3±29.0 Rev/plate
MI: mutagenic index ([8]; TA102, +S9, 50 μg/plate): 0.96
Number of revertants/plate ([8]; TA102, +S9, 50 μg/plate): 358.0±49.1 Rev/plate
MI: mutagenic index ([8]; TA102, +S9, 100 μg/plate): 0.99
Number of revertants/plate ([8]; TA102, +S9, 100 μg/plate): 368.7±12.7 Rev/plate
MI: mutagenic index ([8]; TA102, +S9, 200 μg/plate): 1.02
Number of revertants/plate ([8]; TA102, +S9, 200 μg/plate): 382.0±58.2 Rev/plate
MI: mutagenic index ([8]; TA102, +S9, 400 μg/plate): 0.99
Number of revertants/plate ([8]; TA102, +S9, 400 μg/plate): 371.0±23.6 Rev/plate
MI: mutagenic index ([8]; TA102, -S9, 10 μg/plate): 0.75
Number of revertants/plate ([8]; TA102, -S9, 10 μg/plate): 254.3±47.1 Rev/plate
MI: mutagenic index ([8]; TA102, -S9, 50 μg/plate): 0.89
Number of revertants/plate ([8]; TA102, -S9, 50 μg/plate): 299.3±50.6 Rev/plate
MI: mutagenic index ([8]; TA102, -S9, 100 μg/plate): 1.01
Number of revertants/plate ([8]; TA102, -S9, 100 μg/plate): 341.3±16.8 Rev/plate
MI: mutagenic index ([8]; TA102, -S9, 200 μg/plate): 0.96
Number of revertants/plate ([8]; TA102, -S9, 200 μg/plate): 324.3±4.2 Rev/plate
MI: mutagenic index ([8]; TA102, -S9, 400 μg/plate): 0.95
Number of revertants/plate ([8]; TA102, -S9, 400 μg/plate): 321.0±27.4 Rev/plate
MI: mutagenic index ([9]; +S9, 10 μg/plate): 1.11
Number of revertants/plate ([9]; +S9, 10 μg/plate): 128.0±12.1 Rev/plate
MI: mutagenic index ([9]; +S9, 50 μg/plate): 0.92
Number of revertants/plate ([9]; +S9, 50 μg/plate): 106.0±14.2 Rev/plate
MI: mutagenic index ([9]; +S9, 100 μg/plate): 0.98
Number of revertants/plate ([9]; +S9, 100 μg/plate): 113.5±5.0 Rev/plate
MI: mutagenic index ([9]; +S9, 200 μg/plate): 0.71
Number of revertants/plate ([9]; +S9, 200 μg/plate): 82.0±1.0 Rev/plate
MI: mutagenic index ([9]; +S9, 400 μg/plate): 0.90
Number of revertants/plate ([9]; +S9, 400 μg/plate): 104.0±28.8 Rev/plate
MI: mutagenic index ([9]; -S9, 10 μg/plate): 1.14
Number of revertants/plate ([9]; -S9, 10 μg/plate): 145.7±20.3 Rev/plate
MI: mutagenic index ([9]; -S9, 50 μg/plate): 0.98
Number of revertants/plate ([9]; -S9, 50 μg/plate): 125.0±12.5 Rev/plate
MI: mutagenic index ([9]; -S9, 100 μg/plate): 0.93
Number of revertants/plate ([9]; -S9, 100 μg/plate): 118.0±8.2 Rev/plate
MI: mutagenic index ([9]; -S9, 200 μg/plate): 0.98
Number of revertants/plate ([9]; -S9, 200 μg/plate): 124.3±13.3 Rev/plate
MI: mutagenic index ([9]; -S9, 400 μg/plate): 1.05
Number of revertants/plate ([9]; -S9, 400 μg/plate): 134.0±3.6 Rev/plate
MI: mutagenic index ([10]; TA98, +S9, 10 μg/plate): 1.09
Number of revertants/plate ([10]; TA98, +S9, 10 μg/plate): 43.7±4.7 Rev/plate
MI: mutagenic index ([10]; TA98, +S9, 50 μg/plate): 0.80
Number of revertants/plate ([10]; TA98, +S9, 50 μg/plate): 32.0±7.8 Rev/plate
MI: mutagenic index ([10]; TA98, +S9, 100 μg/plate): 0.94
Number of revertants/plate ([10]; TA98, +S9, 100 μg/plate): 37.7±5.7 Rev/plate
MI: mutagenic index ([10]; TA98, +S9, 200 μg/plate): 1.05
Number of revertants/plate ([10]; TA98, +S9, 200 μg/plate): 42.0±5.6 Rev/plate
MI: mutagenic index ([10]; TA98, +S9, 400 μg/plate): 1.06
Number of revertants/plate ([10]; TA98, +S9, 400 μg/plate): 42.3±6.7 Rev/plate
MI: mutagenic index ([10]; TA98, -S9, 10 μg/plate): 0.83
Number of revertants/plate ([10]; TA98, -S9, 10 μg/plate): 28.3±7.6 Rev/plate
MI: mutagenic index ([10]; TA98, -S9, 50 μg/plate): 0.73
Number of revertants/plate ([10]; TA98, -S9, 50 μg/plate): 25.0±6.1 Rev/plate
MI: mutagenic index ([10]; TA98, -S9, 100 μg/plate): 0.81
Number of revertants/plate ([10]; TA98, -S9, 100 μg/plate): 27.7±4.0 Rev/plate
MI: mutagenic index ([10]; TA98, -S9, 200 μg/plate): 0.89
Number of revertants/plate ([10]; TA98, -S9, 200 μg/plate): 30.5±2.1 Rev/plate
MI: mutagenic index ([10]; TA98, -S9, 400 μg/plate): 1.24
Number of revertants/plate ([10]; TA98, -S9, 400 μg/plate): 42.5±15.8 Rev/plate
Inhibitory potential [11]: weak inhibitory potential
percentage of remaining enzyme activity [12]: approximately 100%
IC50 [13]: > 100 µM
